Experiments:
[1] = test system: MYC, CDK4 and PD-L1 level in HCT116 cells; experiment: Western blot of MYC and MYC-target genes; format: cell-based; settings: RG108 up to 10 µM
[2] = test system: MYC transcriptional activity in HCT116 cells; experiment: luciferase-based MYC reporter assay; format: cell-based; settings: HCT116 cells expressing VF-MKK3; 0.5 to 5 µM, 12 hours
[3] = molecular target: T1, GST-MKK3 and full-length VF-MYC interaction (Homo sapiens, UniProt P46734); experiment: dose-response cell lysate-based TR-FRET assay; format: binding; settings: for inhibition of MKK3-MYC PPI in dose-response TR-FRET: up to 100 µM compound
T1 sequence (P46734 1-347): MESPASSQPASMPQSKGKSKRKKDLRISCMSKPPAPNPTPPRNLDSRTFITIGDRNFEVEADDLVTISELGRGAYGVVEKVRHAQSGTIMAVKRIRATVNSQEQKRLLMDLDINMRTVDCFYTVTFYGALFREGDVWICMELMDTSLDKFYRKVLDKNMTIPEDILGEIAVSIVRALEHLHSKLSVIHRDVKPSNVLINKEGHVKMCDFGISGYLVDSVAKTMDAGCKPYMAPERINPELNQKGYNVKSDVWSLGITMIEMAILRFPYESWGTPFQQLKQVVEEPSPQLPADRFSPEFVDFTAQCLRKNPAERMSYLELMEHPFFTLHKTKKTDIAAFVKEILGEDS

[4] = test system: Renilla luciferase; experiment: luciferase interference control; format: cell-based; settings: cells treated with 10 µM, vs DMSO control
[5] = molecular target: T2, MKK3-MYC PPI (Homo sapiens, UniProt P46734); experiment: GST pull-down PPI inhibition assay, compound-treated HEK293T lysates; format: binding; settings: lysates treated with 50 µM
T2 sequence (P46734 1-347): T1 sequence (P46734 1-347)

[6] = test system: MYC level in MDA-MB-468 cells; experiment: Western blot of MYC level; format: cell-based; settings: increasing concentration
[7] = molecular target: T3, GST-MKK3 association with endogenous MYC in HCT116 cells (Homo sapiens, UniProt P46734); experiment: GST pull-down from compound-treated cells; format: cell-based; settings: HCT116 cells treated with increased concentration
T3 sequence (P46734 1-347): T1 sequence (P46734 1-347)

[8] = test system: phosphorylation of MKK3 substrate p38 in HEK293T cells; experiment: p38 phosphorylation in compound-treated cells; format: cell-based; settings: HEK293T cells incubated with compound
[9] = molecular target: T4, MKK3-p38 PPI (Homo sapiens, UniProt P46734); experiment: GST pull-down PPI inhibition assay, compound-treated HEK293T lysates; format: binding; settings: up to 50 µM
T4 sequence (P46734 1-347): T1 sequence (P46734 1-347)

[10] = molecular target: MYC-MAX PPI (Homo sapiens, UniProt P01106); experiment: as above; format: binding; settings: up to 50 µM
Sequence of MYC-MAX PPI (P01106 16-454): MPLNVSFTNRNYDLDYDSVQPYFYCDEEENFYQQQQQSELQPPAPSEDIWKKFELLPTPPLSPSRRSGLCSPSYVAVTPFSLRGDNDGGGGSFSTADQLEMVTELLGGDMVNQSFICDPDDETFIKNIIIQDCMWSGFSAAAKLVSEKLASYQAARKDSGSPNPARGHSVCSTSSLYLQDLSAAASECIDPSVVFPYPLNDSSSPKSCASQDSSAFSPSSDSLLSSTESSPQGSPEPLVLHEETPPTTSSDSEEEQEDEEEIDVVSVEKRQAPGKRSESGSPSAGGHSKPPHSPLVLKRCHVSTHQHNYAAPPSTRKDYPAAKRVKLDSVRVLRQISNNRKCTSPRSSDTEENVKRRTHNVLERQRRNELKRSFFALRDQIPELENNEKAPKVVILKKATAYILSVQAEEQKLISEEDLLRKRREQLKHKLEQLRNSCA

[11] = test system: MYC transcriptional activity in MDA-MB-468 cells; experiment: luciferase-based MYC reporter assay; format: cell-based; settings: MDA-MB-468 cells expressing VF-MKK3; 0.5 to 5 µM, 12 hours

## O=C(O)[C@H](Cc1c[nH]c2ccccc12)N1C(=O)c2ccccc2C1=O [RG108]
[1]
  level of MYC and MYC-target genes (CDK4, PD-L1): did not suppress
[2]
  MKK3-induced MYC transcriptional activity, reporter assay: not suppressed
[3]
  inhibition of MKK3-MYC PPI in dose-response TR-FRET: does not interfere

## Cc1cc(Nc2ccc(NC(=O)c3ccc(Nc4ccnc5ccccc45)cc3)cc2)nc(N)n1 [SGI-1027, N-[4-[(2-Amino-6-methylpyrimidin-4-yl)amino]phenyl]-4-(quinolin-4-ylamino)benzamide]
[4]
  Renilla luciferase activity: did not observe a decrease
[5]
  inhibition of MKK3-MYC PPI in GST pull-down: confirmed the inhibition
[6]
  MYC level: decreased proportionally
[7]
  association of GST-MKK3 with endogenous MYC: decreased association
[1]
  level of MYC and MYC-target genes (CDK4, PD-L1): substantial decrease
[8]
  phosphorylation of MKK3 substrate p38: did not decrease
[2]
  MKK3-induced MYC transcriptional activity, reporter assay: diminished
[3]
  IC50: 8 µM
[9]
  suppression of MKK3-p38 PPI in GST pull-down: did not observe a significant suppression
[10]
  suppression of MYC-MAX PPI in GST pull-down: did not observe a significant suppression
[11]
  MKK3-induced MYC transcriptional activity, reporter assay: diminished

## Cc1cc2c(C(C)C)c(O)c(O)c(C=O)c2c(O)c1-c1c(C)cc2c(C(C)C)c(O)c(O)c(C=O)c2c1O [AT101, (−)-1,1’,6,6’,7,7’-Hexahydroxy-3,3’-dimethyl-5,5’-bis(1-methylethyl)-[2,2’-binaphthalene]-8,8’dicarboxaldehyde]
[3]
  inhibition of MKK3-MYC PPI in dose-response TR-FRET: did not demonstrate detectable inhibition
